# Key:
# Format in all cases: in vivo
# [1] = test system: Chamomilla recutita, Artemisia pallens, Pelargonium graveolens, and Mentha arvensis; assay: Screening of resistance-inducing chemicals on potted aromatic plants under glasshouse conditions; conditions: plants in pots, four aromatic plants
# Description: In this example, fifteen chemicals known to induce resistance in plants were screened by applying the chemicals to four varieties of aromatic plants in pots. The four aromatic plants used in this screening included: Chamomilla recutita, Artemisia pallens, Pelargonium graveolens, and Mentha arvensis. […] These eight chemicals include isonicotinamide, DL-2 amino butyric acid, 4-chlorosalicylic acid, 2-amino isobutyric acid, o-acetyl salicylic acid, amino salicylic acid, salicylic acid, and 5-nitrosalicylic acid.
# Mentha arvensis cv. Kosi [2] = assay: Field testing of identified compounds, essential oil content; conditions: for Content of Essential Oil (%): 2 mM spray at onset of maturity, 15 days before harvest, water control 0.66, LSD (p = 0.05) 0.06
# Procedure: (§1) The eight chemicals selected in the previous example for their effects on aromatic plants were subsequently field tested using 2 mM solutions of each chemical in sterilized distilled water. The field tests were performed on Pelargonium graveolens cv. Bipuli and Mentha arvensis cv. […] The plants were sprayed with the 2 mM solutions of the chemicals at the onset of maturity, 15 days before harvest. Plants sprayed with sterilized distilled water served as a control group.
# [3] = test system: Pelargonium graveolens cv. Bipuli; assay: as above; conditions: for Content of Essential Oil (%): 2 mM spray at onset of maturity, 15 days before harvest, water control 0.13, LSD (p = 0.05) 0.01; for change in essential oil content (in words): stated for the field tests of Table 1 (both plants) without naming the plant
# Procedure: as §1
# Mentha arvensis cv. Kosi [4] = assay: Optimal crop maturity stage for chemical application, essential oil content; conditions: 2 mM spray, LSD (p = 0.05) 0.07
# Procedure: In this example, three of the chemicals described above were further investigated to determine the optimal crop maturity stage for applying the formulation. The three chemicals used in this example were DL-2 amino butyric acid, isonicotinamide, and salicylic acid, all at concentrations of 2 mM. The solutions were tested on Mentha arvensis cv. Kosi planted in a randomized block design with 5 replications. In these experiments, the crops were sprayed at 4 different stages of growth and development including 10-day-old crops, 50-day-old crops, 80-day-old crops, and 100-day-old crops.
# [5] = test system: Pelargonium graveolens cv. Bipuli; assay: Large scale field testing at several concentrations, essential oil content; conditions: for Content of Essential Oil (%): distilled 15 days after spray, water 0.16, LSD (p = 0.05) 0.01
# Procedure: (§2) In the present example, field experiments were conducted, wherein 6 larger plots of Pelargonium graveolens cv. Bipuli (about 25 m^2) were sprayed with solutions of DL-2 amino butyric acid at several different concentrations. An equal number of plots sprayed with sterilized distilled water served as a control group. At least 20 samples of herbage from the sprayed plots and at least 20 samples of herbage from the control plots were distilled in Clevenger type glass apparatus 15 days after spray.
# Mentha arvensis cv. Kosi [6] = assay: Further large plot field testing at about 206 mg/L, essential oil content
# Procedure: as §2
# (§3) Further field testing involved samples of herbage of both Pelargonium graveolens cv. Bipuli and Mentha arvensis cv. Kosi being treated with a solution of DL-2 amino butyric acid at a concentration of about 206 mg/L in water. Similarly to the above tests, large plots were sprayed with the DL-2 amino butyric acid solution, and samples of herbage from both the sprayed plots and the control plots were examined for their essential oil content.
# [7] = test system: Pelargonium graveolens cv. Bipuli; assay: as above
# Procedure: as §2, §3
# [8] = age of crop at spray 10 days, water 0.67
# [9] = age of crop at spray 50 days, water 0.67
# [10] = age of crop at spray 80 days, water 0.68
# [11] = age of crop at spray 100 days, water 0.66
# [12] = 2 mM spray, versus water control
# [13] = about 206 mg/L, compared to herbage samples treated only with water
SMILES,improving growth and herbage and/or essential oil content [1],Content of Essential Oil (%) (Mentha arvensis cv. Kosi [2]),Content of Essential Oil (%) [3] [%],change in essential oil content (in words) ([3]; 2 mM spray),Content of Essential Oil (%) (Mentha arvensis cv. Kosi [4]; [8]),Content of Essential Oil (%) (Mentha arvensis cv. Kosi [4]; [9]),Content of Essential Oil (%) (Mentha arvensis cv. Kosi [4]; [10]),Content of Essential Oil (%) (Mentha arvensis cv. Kosi [4]; [11]),increase in essential oil content (Mentha arvensis cv. Kosi [2]; [12]),"increase in essential oil content [3, 12]",Content of Essential Oil (%) ([5]; 0.1 mM solution),Content of Essential Oil (%) ([5]; 1.0 mM solution),"increase in essential oil content ([5]; 2 mM and 4 mM, versus water)",Content of Essential Oil (%) ([5]; 2.0 mM solution),Content of Essential Oil (%) ([5]; 4.0 mM solution),"Content of Essential Oil (Mean % ± S.E.) (Mentha arvensis cv. Kosi [6]; about 206 mg/L in water, n ≧ 20 herbage samples, water 0.74 ± 0.02) [%]",increase in essential oil content (Mentha arvensis cv. Kosi [6]; [13]),"Content of Essential Oil (Mean % ± S.E.) ([7]; about 206 mg/L in water, n ≧ 20 herbage samples, water 0.14 ± 0.01) [%]","increase in essential oil content [7, 13]"
NC(=O)c1ccncc1 [isonicotinamide],particularly effective,0.70,0.14,slight increase,0.71,0.70,0.70,0.70,,,,,,,,,,,
CC(C)(N)C(=O)O [2-amino isobutyric acid],particularly effective,0.72,0.12,,,,,,,,,,,,,,,,
O=C(O)c1cc([N+](=O)[O-])ccc1O [5-nitrosalicylic acid],particularly effective,0.73,0.13,,,,,,,,,,,,,,,,
CCC(N)C(=O)O (racemic) [DL-2 amino butyric acid],particularly effective,0.84,0.19,,0.80,0.82,0.81,0.84,about 27%,about 46%,0.16,0.17,about 25%,0.20,0.20,0.89 ± 0.02,about 20%,0.19 ± 0.01,about 36%
O=C(O)c1ccccc1O [salicylic acid],particularly effective,0.70,0.11,slight reduction,0.70,0.68,0.70,0.70,,,,,,,,,,,
O=C(O)c1ccc(Cl)cc1O [4-chloro salicylic acid],particularly effective,0.68,0.13,,,,,,,,,,,,,,,,

# — patent US20030089034A1, “Formulation and method for increasing the essential oil content in aromatic crops” (priority 2001, published 2003)
